According to patent US8614333B2, “Acenaphtho heterocyclic compound and application thereof” (Dalian University of Technology, priority 2010, dated 2013):
Blank lines part the entries; values can stand above or below the molecule they belong to.

Tests used:
[1] = test system: Bcl-2; assay: Western blotting, semiquantitative analysis of Bcl-2 protein bands; assay type: cell-based; conditions: control = 1, tumor cells
Method: (§1) The interest protein was detected by the corresponding antibody. The expression of the interest protein in the cells was detected by horseradish peroxidase-labeled secondary antibodies in combination with ECL coloration method. […] The concentration of the protein bands in the Western images were carried out semiquantitative analysis and normalization treatment with KODAK Gel Logic 1500 imaging system software.

[2] = target: GST-Bcl-2 protein (Homo sapiens, UniProt P10415); assay: Fluorescence polarization assay, competition with FAM-Bid peptide for Bcl-2; conditions: GST-Bcl-2 40 nM, FAM-Bid 5 nM, 4 hours of incubation, read-out: Bcl-2 binding constants
Method: (§2) A Bid BH3 peptide (amino acids: 79-99: […]) having 21 amino acids was synthesized and marked with 6-carboxyfluorescein N-succinimidyl ester (FAM) as fluorescent tag (FAM-Bid) at the N-terminal. The reaction system used in the competitive binding experiment was GST-Bcl-2 protein (40 nM) or Mcl-1 protein, which was dissolved in the reaction buffer (100 mM K3PO4, pH 7.5; 100 μg/ml bovine γ albumin; 0.02% sodium azide) together with FAM-Bid polypeptide (5 nM). In a 96-well plate, 100 µL of the reaction system was added into each well. Then 1 μL different concentration of compound 13 mother solution to be detected dissolved in DMSO was added there into until the final concentration met the experimental design requirements. Meanwhile, two control groups were established, one with the reaction system only containing Bcl-2 or Mcl-1 and FAM-Bid (equivalent to 0% inhibition rate), the other with the reaction system only containing FAM-Bid peptide. After 4 hours of incubation, the 96-well plate was detected by enzyme-labelled meter. The fluorescent polarization value (mP) was tested at […]. Ki value was deduced according to calculation formula.
(§3) The BH3 analogous degrees of other 12 compounds were detected by using the experimental method as described above.

[3] = test system: BAX shift towards the chondriosome; assay: Co-localization between Bax protein and chondriosome, Bax-YFP in MCF-7 cells; assay type: cell-based; conditions: for Doses (concentration at which the compound drove the BAX to shift towards the chondriosome): Bax-YFP/Mito Tracker Red; for Time (time period after which BAX shifted towards the chondriosome): at the concentration given
Summary of the method: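 MCF-7 cells transfected with Bax-YFP plasmid; 24 h later treated with 10 μM compound for 6 h, then stained 10 min with 50 nM MitoTracker Red CMXRos. Dual-channel laser confocal imaging; Bax mitochondrial localization read as green/red overlap (orange).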

[4] = test system: MCF-7 cells; assay: Cytotoxicity by MTT, cells without plasmid transfection; assay type: cell-based; conditions: Homo sapiens, MCF7; MCF-7, MTT, 48 hours; read-out: IC50 value in untransfected cells
Summary of the method: (§4)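 MCF-7 cells transfected with 3 μg BAX/BAK interfering plasmid by calcium phosphate, knockdown checked by Western; untransfected cells run in parallel. Cells treated with a compound concentration gradient for 48 hours; viability by MTT, IC50 derived.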

[5] = target: Mcl-1 protein (Homo sapiens, UniProt Q07820); assay: Fluorescence polarization assay, competition with FAM-Bid peptide for Mcl-1; conditions: FAM-Bid 5 nM, 4 hours of incubation, read-out: Mcl-1 binding constants
Method: as §2, §3

[6] = test system: MCF-7 cells transfected with BAX/BAK interfering plasmid; assay: Cytotoxicity by MTT, cells transfected with BAX/BAK interfering plasmid; assay type: cell-based; conditions: Homo sapiens, MCF7; MCF-7 with BAX/BAK interfering plasmid, MTT, 48 hours
Summary of the method: as §4

[7] = test system: Mcl-1; assay: Western blotting, semiquantitative analysis of Mcl-1 protein bands; assay type: cell-based; conditions: control = 1, tumor cells
Method: as §1

[8] = target: T1, interaction between Bcl-2 and Bax (Homo sapiens, UniProt P10415); assay: Intracellular FRET, Bcl-2-CFP/Bax-YFP in Hela cells; assay type: cell-based; conditions: for Time (time period after which the interaction between Bcl-2 and Bax was interfered): at the concentration given
T1 construct: expressed in transfected cells; host or cells: Hela cells
Summary of the method: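 Hela cells transfected with Bcl-2-CFP and/or Bax-YFP plasmids, then treated with compound in DMSO at 2, 5, 10 and 15 μM for 24 h, or at 40 μM for 3, 6 and 24 h. FRET taken as the 527/475 nm emission ratio at 433 nm excitation, with singly transfected controls set to 1.0. Viability checked by MTT.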

Chain of Mcl-1 protein (Q07820 whole entry, species assumed): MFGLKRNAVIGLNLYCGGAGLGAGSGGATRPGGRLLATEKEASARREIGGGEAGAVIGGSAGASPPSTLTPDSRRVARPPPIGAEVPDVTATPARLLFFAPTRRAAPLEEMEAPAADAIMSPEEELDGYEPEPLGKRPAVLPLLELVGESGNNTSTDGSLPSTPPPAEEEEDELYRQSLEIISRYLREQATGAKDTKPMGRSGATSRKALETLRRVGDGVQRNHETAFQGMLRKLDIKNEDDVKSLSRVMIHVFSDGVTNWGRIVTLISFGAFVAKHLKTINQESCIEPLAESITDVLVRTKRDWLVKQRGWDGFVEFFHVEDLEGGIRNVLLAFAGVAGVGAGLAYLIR
Chain of GST-Bcl-2 protein (P10415 whole entry): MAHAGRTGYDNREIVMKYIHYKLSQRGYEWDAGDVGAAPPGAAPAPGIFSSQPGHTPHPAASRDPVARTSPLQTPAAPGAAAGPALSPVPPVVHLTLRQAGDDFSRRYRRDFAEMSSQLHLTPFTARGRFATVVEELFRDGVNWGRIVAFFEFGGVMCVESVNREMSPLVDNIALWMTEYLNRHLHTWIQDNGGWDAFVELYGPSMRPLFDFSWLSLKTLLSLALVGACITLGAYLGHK
T1 sequence (P10415 whole entry): as above

Compound: CCC(C)c1ccc(Oc2ccc3c4c(cccc24)C2=NC(=O)C(C#N)=C23)cc1 (stereo not shown) [Compound 13, 3-(4-sec-Butyl-phenoxy)-8-oxo-8H-acenaphtho[1,2-b]pyrrole-9-carbonitrile]
concentration of the protein bands (semiquantitative, normalized), Bcl-2 ([1]; 6 h): 0.99 | concentration of the protein bands (semiquantitative, normalized), Bcl-2 ([1]; 12 h): 0.99 | concentration of the protein bands (semiquantitative, normalized), Bcl-2 ([1]; 18 h): 0.42 | concentration of the protein bands (semiquantitative, normalized), Bcl-2 ([1]; 24 h): 0.14 | melting point: 278 to 279 °C | Ki [2]: 158 nM | Doses (concentration at which the compound drove the BAX to shift towards the chondriosome) [3]: 5.0 µM | Time (time period after which BAX shifted towards the chondriosome) [3]: 4 h | IC50 [4]: 7500 nM | Ki [5]: 24 nM | IC50 [6]: > 50000 nM | concentration of the protein bands (semiquantitative, normalized), Mcl-1 ([7]; 2 h): 0.79 | concentration of the protein bands (semiquantitative, normalized), Mcl-1 ([7]; 6 h): 0.29 | Doses (concentration at which the compound interfered with the interaction between Bcl-2 and Bax) [8]: 0.5 µM | Time (time period after which the interaction between Bcl-2 and Bax was interfered) [8]: 4 h

Compound: CC(C)c1ccc(Oc2ccc3c4c(cccc24)C2=NC(=O)C(C#N)=C23)cc1 [Compound 17, 3-(4-Isopropyl-phenoxy)-8-oxo-8H-acenaphtho[1,2-b]pyrrole-9-carbonitrile]
concentration of the protein bands (semiquantitative, normalized), Bcl-2 ([1]; 6 h): 0.99 | concentration of the protein bands (semiquantitative, normalized), Bcl-2 ([1]; 12 h): 0.99 | concentration of the protein bands (semiquantitative, normalized), Bcl-2 ([1]; 18 h): 0.58 | concentration of the protein bands (semiquantitative, normalized), Bcl-2 ([1]; 24 h): 0.11 | Ki [2]: 20 nM | Doses (concentration at which the compound drove the BAX to shift towards the chondriosome) [3]: 1.0 µM | Time (time period after which BAX shifted towards the chondriosome) [3]: 1 h | IC50 [4]: 2000 nM | Ki [5]: 85 nM | IC50 [6]: > 50000 nM | concentration of the protein bands (semiquantitative, normalized), Mcl-1 ([7]; 2 h): 0.65 | concentration of the protein bands (semiquantitative, normalized), Mcl-1 ([7]; 6 h): 0.37 | Doses (concentration at which the compound interfered with the interaction between Bcl-2 and Bax) [8]: 0.1 µM | Time (time period after which the interaction between Bcl-2 and Bax was interfered) [8]: 2 h

Compound: CC(C)Cc1ccc(Sc2ccc3c4c(cccc24)C2=NC(=O)C(C#N)=C23)cc1 [Compound 18, 3-(4-Isobutyl-phenylsulfanyl)-8-oxo-8H-acenaphtho[1,2-b]pyrrole-9-carbonitrile]
concentration of the protein bands (semiquantitative, normalized), Bcl-2 ([1]; 6 h): 0.99 | concentration of the protein bands (semiquantitative, normalized), Bcl-2 ([1]; 12 h): 0.99 | concentration of the protein bands (semiquantitative, normalized), Bcl-2 ([1]; 18 h): 0.36 | concentration of the protein bands (semiquantitative, normalized), Bcl-2 ([1]; 24 h): 0.10 | Ki [2]: 120 nM | Doses (concentration at which the compound drove the BAX to shift towards the chondriosome) [3]: 5.0 µM | Time (time period after which BAX shifted towards the chondriosome) [3]: 4 h | IC50 [4]: 6800 nM | Ki [5]: 8 nM | IC50 [6]: > 50000 nM | concentration of the protein bands (semiquantitative, normalized), Mcl-1 ([7]; 2 h): 0.66 | concentration of the protein bands (semiquantitative, normalized), Mcl-1 ([7]; 6 h): 0.39 | Doses (concentration at which the compound interfered with the interaction between Bcl-2 and Bax) [8]: 0.5 µM | Time (time period after which the interaction between Bcl-2 and Bax was interfered) [8]: 4 h

Compound: CC(C)c1ccc(Sc2ccc3cccc4c3c2C2=NC(=O)C(C#N)=C24)cc1 [Compound 22, 6-(4-Isopropyl-phenylsulfanyl)-8-oxo-8H-acenaphtho[1,2-b]pyrrole-9-carbonitrile]
concentration of the protein bands (semiquantitative, normalized), Bcl-2 ([1]; 6 h): 0.99 | concentration of the protein bands (semiquantitative, normalized), Bcl-2 ([1]; 12 h): 0.99 | concentration of the protein bands (semiquantitative, normalized), Bcl-2 ([1]; 18 h): 0.60 | concentration of the protein bands (semiquantitative, normalized), Bcl-2 ([1]; 24 h): 0.37 | Ki [2]: 9 nM | Doses (concentration at which the compound drove the BAX to shift towards the chondriosome) [3]: 5.0 µM | Time (time period after which BAX shifted towards the chondriosome) [3]: 3 h | IC50 [4]: 1200 nM | Ki [5]: 85 nM | IC50 [6]: > 50000 nM | concentration of the protein bands (semiquantitative, normalized), Mcl-1 ([7]; 2 h): 0.68 | concentration of the protein bands (semiquantitative, normalized), Mcl-1 ([7]; 6 h): 0.49 | Doses (concentration at which the compound interfered with the interaction between Bcl-2 and Bax) [8]: 0.5 µM | Time (time period after which the interaction between Bcl-2 and Bax was interfered) [8]: 2 h

Further molecules by falling Ki [2], results first:

Ki [2]: 23 nM | Ki [5]: 57 nM | Doses (concentration at which the compound interfered with the interaction between Bcl-2 and Bax) [8]: 0.2 µM | Time (time period after which the interaction between Bcl-2 and Bax was interfered) [8]: 2 h
Compound: CC(C)c1ccc(Sc2ccc3c4c(cccc24)C2=NC(=O)C(C#N)=C23)cc1 [Compound 20, 3-(4-Isopropyl-phenylsulfanyl)-8-oxo-8H-acenaphtho[1,2-b]pyrrole-9-carbonitrile]
concentration of the protein bands (semiquantitative, normalized), Bcl-2 ([1]; 6 h): 0.99 | concentration of the protein bands (semiquantitative, normalized), Bcl-2 ([1]; 12 h): 0.99 | concentration of the protein bands (semiquantitative, normalized), Bcl-2 ([1]; 18 h): 0.50 | concentration of the protein bands (semiquantitative, normalized), Bcl-2 ([1]; 24 h): 0.23 | Doses (concentration at which the compound drove the BAX to shift towards the chondriosome) [3]: 5.0 µM | Time (time period after which BAX shifted towards the chondriosome) [3]: 3 h | IC50 [4]: 2100 nM | IC50 [6]: > 50000 nM | concentration of the protein bands (semiquantitative, normalized), Mcl-1 ([7]; 2 h): 0.60 | concentration of the protein bands (semiquantitative, normalized), Mcl-1 ([7]; 6 h): 0.29

Ki [2]: 12 nM | Ki [5]: 65 nM | Doses (concentration at which the compound interfered with the interaction between Bcl-2 and Bax) [8]: 0.2 µM | Time (time period after which the interaction between Bcl-2 and Bax was interfered) [8]: 2 h
Compound: CCC(C)c1ccc(Sc2ccc3c4c(cccc24)C2=NC(=O)C(C#N)=C23)cc1 (stereo not shown) [Compound 21, 3-(4-sec-Butyl-phenylsulfanyl)-8-oxo-8H-acenaphtho[1,2-b]pyrrole-9-carbonitrile]
concentration of the protein bands (semiquantitative, normalized), Bcl-2 ([1]; 6 h): 0.99 | concentration of the protein bands (semiquantitative, normalized), Bcl-2 ([1]; 12 h): 0.99 | concentration of the protein bands (semiquantitative, normalized), Bcl-2 ([1]; 18 h): 0.49 | concentration of the protein bands (semiquantitative, normalized), Bcl-2 ([1]; 24 h): 0.18 | Doses (concentration at which the compound drove the BAX to shift towards the chondriosome) [3]: 2.0 µM | Time (time period after which BAX shifted towards the chondriosome) [3]: 2 h | IC50 [4]: 1500 nM | IC50 [6]: > 50000 nM | concentration of the protein bands (semiquantitative, normalized), Mcl-1 ([7]; 2 h): 0.59 | concentration of the protein bands (semiquantitative, normalized), Mcl-1 ([7]; 6 h): 0.28
